From patent publication US11034661B2, “Substituted N′-hydroxycarbamimidoyl-1,2,5-oxadiazole compounds as indoleamine 2,3-dioxygenase IDO inhibitors” (Merck Sharp & Dohme Corp., priority 2017, dated 2021)

Legend:
HIS-tagged IDO1 protein = HIS-tagged IDO1 protein (Homo sapiens (Human), UniProt P14902); assay: IDO1 Enzyme Assay; type: biochemical; conditions: recombinant IDO1 40 nM, tryptophan substrate, fluorescence readout
Description: Biological Assays IDO1 Enzyme Assay
(§1) Compounds to be tested were serially diluted in ten 3-fold steps in DMSO starting from 10 mM DMSO stocks. Compound dilutions or DMSO alone were then dispensed from the dilution plate into a Greiner black 384-well assay plate (catalog #781086) using an Echo 555 acoustic liquid handler (Labcyte).
HIS-tagged IDO1 protein was recombinantly expressed in Escherichia coli using ZYP5052 autoinduction media supplemented with 500 μM delta aminolevulinic acid for 48 hours at 16 degrees Celsius. IDO1 protein was purified using Ni^2+-affinity resin and size exclusion chromatography. Purified protein was then diluted in assay buffer (50 mM Tris pH 7.0, 1% glycerol, 20 μM methylene blue, 0.05% Tween-20, 20 mM sodium ascorbate, 100 units/mL catalase to obtain a final IDO1 concentration of 40 nM. IDO1 solution […] or buffer alone […] was dispensed to wells of the assay plate using a BioRAPTR liquid dispenser (Beckman Coulter). Assay plates containing compound and IDO1 enzyme were incubated at room temperature for 30 minutes. Afterwards, 10 μL of 400 μM tryptophan in assay buffer were added to each well of the assay plate using a BioRAPTR liquid dispenser. Plates were incubated at room temperature for 60 minutes and reactions were quenched by addition of 10 μL of 0.5 M methyl isonipecotate in dimethyl sulfoxide. Plates were sealed and incubated at 37 degrees Celsius for 4 hours or 50 degrees Celsius for 2 hours. The plates are allowed to cool and then centrifuged for 1 minute at 1000×g. The resulting fluorescence was measured in an Envision plate reader (Perkin Elmer) with a 400/25 nm excitation filter and an 510/20 nm emission filter.
Potencies were calculated by linear least squares fit to the four parameter logistic IC50 equation.

[1] = target: IDO1 in Hela cells stimulated with IFNγ (Homo sapiens (Human), UniProt P14902); assay: IDO1 Cellular Assay in Hela Cells Stimulated with IFNγ; type: cell-based; conditions: IFNγ 100 ng/mL, about 48 hours, fluorescence readout, read-out: IDO1 HELA Cell Assay, IC50
IDO1 in Hela cells stimulated with IFNγ, sequence (P14902 whole entry): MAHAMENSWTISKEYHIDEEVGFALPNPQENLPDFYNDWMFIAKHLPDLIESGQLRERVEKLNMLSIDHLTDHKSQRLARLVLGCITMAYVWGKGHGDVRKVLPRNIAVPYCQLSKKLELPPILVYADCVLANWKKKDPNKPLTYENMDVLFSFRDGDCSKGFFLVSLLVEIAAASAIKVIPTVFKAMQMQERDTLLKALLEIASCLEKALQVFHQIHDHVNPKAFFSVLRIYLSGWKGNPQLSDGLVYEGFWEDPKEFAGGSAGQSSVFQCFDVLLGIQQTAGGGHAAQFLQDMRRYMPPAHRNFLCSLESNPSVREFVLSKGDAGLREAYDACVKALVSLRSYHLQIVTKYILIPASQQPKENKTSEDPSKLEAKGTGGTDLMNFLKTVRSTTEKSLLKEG
Description: IDO1 Cellular Assay in Hela Cells Stimulated with IFNγ
Hela cells were cultured in complete Hela culture medium (90% EMEM, 10% heat-inactivated fetal bovine serum) and expanded to about 1×10^9 cells. The cells were then collected and frozen down at 10×10^6 cells/vial in 1 mL frozen medium (90% complete Hela culture medium, 10% DMSO)
as §1, with “stocks in Echo low volume plate(s).” for “stocks.”, “plate(s)” for “plate”, “into” for “into a”, “#781086, 50 nL/well)” for “#781086)”, “550” for “555”
Frozen Hela cells were thawed and transferred into Hela assay medium (99% complete Hela culture medium, 1% Pen/Strep) with 20 mL medium/vial of cells. The cells were spun down at 250 g in a table top centrifuge for 5 min and suspended in same volume of Hela assay medium. The cells were then counted and adjusted to a density of 2×10^5 cells/ml in Hela assay medium. Sterile L-tryptophan were added to the cells with final concentration of 300 uM L-tryptophan. A small aliquot (2 mL/plate) of Hela cells were set aside and were not treated with IFNγ, to serve as the Max-E control. The rest of Hela cells were added with sterile IFNγ (Cat #285-IF, R & D systems) with a final concentration of 100 ng/mL.
Hela cells with and without IFNγ were dispensed to the respective wells of 384-well assay plates containing the compounds. The plates were incubated for about 48 hours at a 37° C., 5% CO2 incubator. Afterwards, 12 μL of 0.5 M methyl isonipecotate in dimethyl sulfoxide were added into each well and the plates were sealed and incubated at 37° C. without CO2 overnight. The plates were centrifuged for 1 min at 200×g. The resulting fluorescence was measured in a Spectramax plate reader (Molecular Devices) with a 400 nm excitation filter and a 510 nm emission filter.
The fluorescence intensity of each well was corrected for the background observed in wells with non-IFNγ-treated cells and was expressed as a fraction of the intensity observed in wells of IFNγ-treated cells and DMSO only. Potencies were calculated by linear least squares fit to the four parameter logistic IC50 equation.

HIS-tagged IDO1 protein, sequence (P14902 whole entry): as above

| SMILES | IC50 (HIS-tagged IDO1 protein) [nM] | IC50 [1] [nM] |
| --- | --- | --- |
| O=C(CO)N1CC[C@@H](Oc2nonc2/C(=N/O)N[C@H]2Cc3ccc(F)cc32)C1 [Example 60, N-[(7S)-4-fluorobicyclo[4.2.0]octa-1,3,5-trien-7-yl]-N′-hydroxy-4-{[(3R)-1-(hydroxyacetyl)pyrrolidin-3-yl]oxy}-1,2,5-oxadiazole-3-carboximidamide] | 1390 | 1440 |
| NS(=O)(=O)N1CC(Oc2nonc2/C(=N/O)N[C@H]2Cc3ccc(F)cc32)C1 [Example 62, (S,Z)-N-(4-fluorobicyclo[4.2.0]octa-1(6),2,4-trien-7-yl)-N′-hydroxy-4-((1-sulfamoylazetidin-3-yl)oxy)-1,2,5-oxadiazole-3-carboximidamide] | 24 | 44 |
| NS(=O)(=O)NCCCOc1nonc1/C(=N/O)N[C@H]1Cc2ccc(F)cc21 [Example 64, (S,Z)-N-(4-fluorobicyclo[4.2.0]octa-1(6),2,4-trien-7-yl)-N′-hydroxy-4-(3-(sulfamoylamino)propoxy)-1,2,5-oxadiazole-3-carboximidamide] | 37 | 66 |
| C[C@@H](CNS(N)(=O)=O)Oc1nonc1/C(=N/O)N[C@H]1Cc2ccc(F)cc21 [Example 67, (Z)-N-((S)-4-fluorobicyclo[4.2.0]octa-1(6),2,4-trien-7-yl)-N′-hydroxy-4-(((S)-1-(sulfamoylamino)propan-2-yl)oxy)-1,2,5-oxadiazole-3-carboximidamide] | 1550 | 848 |

Results, then the compound that gave them:

| IC50 (HIS-tagged IDO1 protein) [nM] | IC50 [1] [nM] | SMILES |
| --- | --- | --- |
| 89 | 99 | C[C@@H](O)C(=O)N1CC(Oc2nonc2/C(=N/O)N[C@H]2Cc3ccc(F)cc32)C1 [Example 61, N-((S)-4-fluorobicyclo[4.2.0]octa-1(6),2,4-trien-7-yl)-N′-hydroxy-4-((1-((R)-2-hydroxypropanoyl)azetidin-3-yl)oxy)-1,2,5-oxadiazole-3-carboximidamide] |
| 20 | 36 | NC(=O)N1CC(Oc2nonc2/C(=N/O)N[C@H]2Cc3ccc(F)cc32)C1 [Example 63, (S,Z)-3-((4-(N-(4-fluorobicyclo[4.2.0]octa-1(6),2,4-trien-7-yl)-N′-hydroxycarbamimidoyl)-1,2,5-oxadiazol-3-yl)oxy)azetidine-1-carboxamide] |
| 167 | 280 | O=C(N[C@H]1C[C@@H](Oc2nonc2/C(=N/O)N[C@H]2Cc3ccc(F)cc32)C1)C1(O)CC1 [Example 65, N-((1R,3s)-3-((4-((Z)-N-((S)-4-fluorobicyclo[4.2.0]octa-1(6),2,4-trien-7-yl)-N′-hydroxycarbamimidoyl)-1,2,5-oxadiazol-3-yl)oxy)cyclobutyl)-1-hydroxycyclopropanecarboxamide] |
| 167 | 287 | CC(C)(O)C(=O)N[C@H]1C[C@@H](Oc2nonc2/C(=N/O)N[C@H]2Cc3ccc(F)cc32)C1 [Example 66, N-((1R,3s)-3-((4-((Z)-N-((S)-4-fluorobicyclo[4.2.0]octa-1(6),2,4-trien-7-yl)-N′-hydroxycarbamimidoyl)-1,2,5-oxadiazol-3-yl)oxy)cyclobutyl)-2-hydroxy-2-methylpropanamide] |
